Reference: patent publication US8445409B2, “Use of 5-benzyloxymethyl-1,2-isoxazoline derivatives as a herbicide” (Moghu Research Center Ltd., priority 2007, dated 2013)
Entries after “also recorded” stand apart in the source; their conditions may differ.

Legend:
Corn = experiment: Upland pot test, pre-/post-emergence spray, visual rating; type: in vivo, corn (ZEAMX); conditions: for Visual measurement: Crops, Corn: 2 weeks after spray, 0-10 scale (10=completely killed)
Source text: (§1) To a rectangular plastic pot having a surface area of 300 cm^2, mixed soils including blend bed soil (Boonong, Horticultural Bed Soil No. 3) and sandy loam soil were filled (mixing ratio, 1:1). Seeds of the eight different types of weeds including gramineous weed such as barnyardgrass, large crabgrass, green foxtail, fall panicum, and broadleaf weed such as common cocklebur, velvetleaf, Indian joint-vetch, and morningglory were sown. To the other pot containing the same soil mixture, seeds of the five different types of crops including corn, soybean, cotton, wheat and rice were sown. Pots were kept in a greenhouse of which temperature was maintained at 25˜30° C. (day) or 15˜25° C. (night), and regularly watered.
(§2) After fourteen days and when the crops and the weeds reached their three-leaf stage, the other set of a crop pot and a weed pot were prepared by the same method as described above. Then, “test substance” was sprayed thereto. In this case, spray treatment to the plants after they have grown for two weeks corresponded to post-emergence treatment while spray treatment to the seeds right after the sowing corresponded to pre-emergence treatment. Spray was carried out by using a track sprayer (R&D Sprayer, USA) equipped with a Teejet 8002 nozzle (Spraying Systems Co., USA). Spray volume was adjusted to 300 L/ha. The spray solution was prepared by dissolving the “test substance” in acetone and adding the same volume of 0.2% (v/v) Tween 20 aqueous solution. Dosage of the test substance was 500, 250, 125, 62.5 or 31.3 g/ha. Two weeks after the spray of the test substance, efficacy and phytotoxic effect to the crops and the weeds were visually measured based on a 0 to 10 scale (0: no efficacy, 10: completely killed).

Rice = experiment: as above; type: in vivo, rice (ORYSA); conditions: for Visual measurement: Crops, Rice: 2 weeks after spray, 0-10 scale (10=completely killed)
Source text: as §1, §2

Cotton = experiment: as above; type: in vivo, cotton (GOSHI); conditions: for Visual measurement: Crops, Cotton: 2 weeks after spray, 0-10 scale (10=completely killed)
Source text: as §1, §2

Velvetleaf = experiment: as above; type: in vivo, velvetleaf (ABUTH); conditions: 2 weeks after spray, 0-10 scale (10=completely killed)
Source text: as §1, §2

Indian joint-vetch = experiment: as above; type: in vivo, Indian joint-vetch (AESIN); conditions: 2 weeks after spray, 0-10 scale (10=completely killed)
Source text: as §1, §2

Morningglory = experiment: as above; type: in vivo, morningglory (IPOSP); conditions: 2 weeks after spray, 0-10 scale (10=completely killed)
Source text: as §1, §2

Large crabgrass = experiment: Herbicidal activity at different growth stages, fresh weight suppression; type: in vivo; conditions: for Suppression ratio relative to the biomass of the untreated group: Large crabgrass 1 leaf / Suppression ratio relative to the biomass of the untreated group: Large crabgrass 2 leaf / Suppression ratio relative to the biomass of the untreated group: Large crabgrass 3 leaf / Suppression ratio relative to the biomass of the untreated group: Large crabgrass 4 leaf / Suppression ratio relative to the biomass of the untreated group: Large crabgrass PRE: fresh weight two weeks after treatment
Description: To a cup pot having a surface area of 100 cm^2 wherein mixed soils including blend bed soil (Boonong, Horticultural Bed Soil No. 3) and sandy loam soil were filled (mixing ratio, 1:1), seeds of large crabgrass and annual bluegrass were sown consecutively at an one week interval. The pots were moistened by sub-irrigation, and kept in a greenhouse maintained at 25˜30° C. (day) or 15˜25° C. (night). The said weeds were grown to various growth stages from pre-emergence to the four-leaf stage. Then, they were applied with the test substance of the present invention at dosage of 2, 1, 0.5, or 0.25 kg/ha. As a reference herbicide, Dithiopyr (32% EC, manufactured by Dongbu Hannong Chemical Company), was applied at 0.96, 0.48, or 0.24 kg/ha. Spray volume was adjusted to 2,000 L/ha. The method to spray of the test substance and prepare spray solutions were the same as described above. The reference herbicide was used after it was diluted with 0.2% (v/v) Tween 20 aqueous solution. The test was conducted in a randomized block design with three replicates. Two weeks after the treatment, plant parts remained above the pot soil surface were cut and the fresh weight was weighed. Results are given by a suppression ratio relative to the biomass that was obtained from the untreated group (see, Table 3).

[1] = system: gramineous weeds such as barnyardgrass, green foxtail, large crabgrass and fall panicum; experiment: Upland pot test, gramineous weeds as a group; type: in vivo
Source text: as §1, §2

[2] = post-emergence foliar spray at three leaf stage, 31.2 g/ha
[3] = post-emergence foliar spray at three leaf stage, 62.5 g/ha
[4] = post-emergence foliar spray at three leaf stage, 125 g/ha
[5] = post-emergence foliar spray at three leaf stage, 250 g/ha
[6] = post-emergence foliar spray at three leaf stage, 500 g/ha
[7] = pre-emergence soil treatment, 31.2 g/ha
[8] = pre-emergence soil treatment, 62.5 g/ha
[9] = pre-emergence soil treatment, 125 g/ha
[10] = pre-emergence soil treatment, 250 g/ha
[11] = pre-emergence soil treatment, 500 g/ha

Cc1ccsc1C1=NOC(C)(COCc2c(F)cccc2F)C1 (stereo not shown) [test substance, 5-(2,6-difluorobenzyl)oxymethyl-5-methyl-3-(4-methylthiophen-5-yl)-1,2-isoxazoline]
Visual measurement: Crops, Corn (Corn; [2]): 0
Visual measurement: Crops, Corn (Corn; [3]): 2
Visual measurement: Crops, Corn (Corn; [4]): 2
Visual measurement: Crops, Corn (Corn; [5]): 3
Visual measurement: Crops, Corn (Corn; [6]): 8
Safety to corn (in words) (Corn; post-emergence treatment): not safe
Visual measurement: Crops, Corn (Corn; [7]): 0
Visual measurement: Crops, Corn (Corn; [8]): 0
Visual measurement: Crops, Corn (Corn; [9]): 0
Visual measurement: Crops, Corn (Corn; [10]): 0
Visual measurement: Crops, Corn (Corn; [11]): 0
Visual measurement: Crops, Rice (Rice; [2]): 0
Visual measurement: Crops, Rice (Rice; [3]): 0
Visual measurement: Crops, Rice (Rice; [4]): 0
Visual measurement: Crops, Rice (Rice; [5]): 0
Visual measurement: Crops, Rice (Rice; [6]): 0
Safety to rice (in words) (Rice; post-emergence treatment): safe
Visual measurement: Crops, Rice (Rice; [7]): 0
Visual measurement: Crops, Rice (Rice; [8]): 0
Visual measurement: Crops, Rice (Rice; [9]): 0
Visual measurement: Crops, Rice (Rice; [10]): 0
Visual measurement: Crops, Rice (Rice; [11]): 0
Visual measurement: Crops, Cotton (Cotton; [2]): 0
Visual measurement: Crops, Cotton (Cotton; [3]): 0
Visual measurement: Crops, Cotton (Cotton; [4]): 0
Visual measurement: Crops, Cotton (Cotton; [5]): 0
Visual measurement: Crops, Cotton (Cotton; [6]): 0
Safety to cotton (in words) (Cotton; post-emergence treatment): safe
Visual measurement: Crops, Cotton (Cotton; [7]): 0
Visual measurement: Crops, Cotton (Cotton; [8]): 0
Visual measurement: Crops, Cotton (Cotton; [9]): 0
Visual measurement: Crops, Cotton (Cotton; [10]): 0
Visual measurement: Crops, Cotton (Cotton; [11]): 0
Visual measurement: Broadleaf weed, Velvetleaf (Velvetleaf; [2]): 0
Visual measurement: Broadleaf weed, Velvetleaf (Velvetleaf; [3]): 0
Visual measurement: Broadleaf weed, Velvetleaf (Velvetleaf; [4]): 1
Visual measurement: Broadleaf weed, Velvetleaf (Velvetleaf; [5]): 3
Visual measurement: Broadleaf weed, Velvetleaf (Velvetleaf; [6]): 6
Visual measurement: Broadleaf weed, Velvetleaf (Velvetleaf; [7]): 0
Visual measurement: Broadleaf weed, Velvetleaf (Velvetleaf; [8]): 0
Visual measurement: Broadleaf weed, Velvetleaf (Velvetleaf; [9]): 0
Visual measurement: Broadleaf weed, Velvetleaf (Velvetleaf; [10]): 0
Visual measurement: Broadleaf weed, Velvetleaf (Velvetleaf; [11]): 0
Visual measurement: Broadleaf weed, Indian joint-vetch (Indian joint-vetch; [2]): 0
Visual measurement: Broadleaf weed, Indian joint-vetch (Indian joint-vetch; [3]): 1
Visual measurement: Broadleaf weed, Indian joint-vetch (Indian joint-vetch; [4]): 2
Visual measurement: Broadleaf weed, Indian joint-vetch (Indian joint-vetch; [5]): 3
Visual measurement: Broadleaf weed, Indian joint-vetch (Indian joint-vetch; [6]): 4
Visual measurement: Broadleaf weed, Indian joint-vetch (Indian joint-vetch; [7]): 0
Visual measurement: Broadleaf weed, Indian joint-vetch (Indian joint-vetch; [8]): 0
Visual measurement: Broadleaf weed, Indian joint-vetch (Indian joint-vetch; [9]): 0
Visual measurement: Broadleaf weed, Indian joint-vetch (Indian joint-vetch; [10]): 0
Visual measurement: Broadleaf weed, Indian joint-vetch (Indian joint-vetch; [11]): 0
Visual measurement: Broadleaf weed, Morningglory (Morningglory; [2]): 0
Visual measurement: Broadleaf weed, Morningglory (Morningglory; [3]): 0
Visual measurement: Broadleaf weed, Morningglory (Morningglory; [4]): 0
Visual measurement: Broadleaf weed, Morningglory (Morningglory; [5]): 1
Visual measurement: Broadleaf weed, Morningglory (Morningglory; [6]): 3
Visual measurement: Broadleaf weed, Morningglory (Morningglory; [7]): 0
Visual measurement: Broadleaf weed, Morningglory (Morningglory; [8]): 0
Visual measurement: Broadleaf weed, Morningglory (Morningglory; [9]): 1
Visual measurement: Broadleaf weed, Morningglory (Morningglory; [10]): 2
Visual measurement: Broadleaf weed, Morningglory (Morningglory; [11]): 2
Suppression ratio relative to the biomass of the untreated group: Large crabgrass 1 leaf (Large crabgrass; 1 kg/ha): 100%
Suppression ratio relative to the biomass of the untreated group: Large crabgrass 2 leaf (Large crabgrass; 1 kg/ha): 98%
Suppression ratio relative to the biomass of the untreated group: Large crabgrass 3 leaf (Large crabgrass; 1 kg/ha): 94%
Suppression ratio relative to the biomass of the untreated group: Large crabgrass 4 leaf (Large crabgrass; 1 kg/ha): 70%
Suppression ratio relative to the biomass of the untreated group: Large crabgrass PRE (Large crabgrass; 1 kg/ha): 100%
Suppression ratio relative to the biomass of the untreated group: Large crabgrass 1 leaf (Large crabgrass; 2 kg/ha): 100%
Suppression ratio relative to the biomass of the untreated group: Large crabgrass 2 leaf (Large crabgrass; 2 kg/ha): 98%
Suppression ratio relative to the biomass of the untreated group: Large crabgrass 3 leaf (Large crabgrass; 2 kg/ha): 97%
Suppression ratio relative to the biomass of the untreated group: Large crabgrass 4 leaf (Large crabgrass; 2 kg/ha): 76%
Suppression ratio relative to the biomass of the untreated group: Large crabgrass PRE (Large crabgrass; 2 kg/ha): 100%
Suppression of large crabgrass (Large crabgrass; 3-leaf stage, 1 kg/ha or more): ≥ 90%
Suppression ratio relative to the biomass of the untreated group: Large crabgrass 2 leaf (Large crabgrass; .12 kg/ha): 45%
Suppression ratio relative to the biomass of the untreated group: Large crabgrass 4 leaf (Large crabgrass; .12 kg/ha): 16%
Suppression ratio relative to the biomass of the untreated group: Large crabgrass 1 leaf (Large crabgrass; .25 kg/ha): 100%
Suppression ratio relative to the biomass of the untreated group: Large crabgrass 2 leaf (Large crabgrass; .25 kg/ha): 81%
Suppression ratio relative to the biomass of the untreated group: Large crabgrass 3 leaf (Large crabgrass; .25 kg/ha): 72%
Suppression ratio relative to the biomass of the untreated group: Large crabgrass 4 leaf (Large crabgrass; .25 kg/ha): 33%
Suppression ratio relative to the biomass of the untreated group: Large crabgrass PRE (Large crabgrass; .25 kg/ha): 100%
Suppression ratio relative to the biomass of the untreated group: Large crabgrass 1 leaf (Large crabgrass; .5 kg/ha): 100%
Suppression ratio relative to the biomass of the untreated group: Large crabgrass 2 leaf (Large crabgrass; .5 kg/ha): 93%
Suppression ratio relative to the biomass of the untreated group: Large crabgrass 3 leaf (Large crabgrass; .5 kg/ha): 86%
Suppression ratio relative to the biomass of the untreated group: Large crabgrass 4 leaf (Large crabgrass; .5 kg/ha): 65%
Suppression ratio relative to the biomass of the untreated group: Large crabgrass PRE (Large crabgrass; .5 kg/ha): 100%
Suppression of large crabgrass (Large crabgrass; PRE to 2-leaf stage, 0.5 kg/ha or above): ≥ 90%
Control of large crabgrass (in words) (Large crabgrass; over four-leaf stage): suppressed but were not completely controlled
Control of gramineous weeds (in words) ([1]; post-emergence treatment at three-leaf stage, FIG. 2): well controlled
Control of gramineous weeds (in words) ([1]; post-emergence treatment, 500 g/ha): most of the gramineous weeds were controlled
Control of gramineous weeds (in words) ([1]; pre-emergence treatment, 125 g/ha or more, FIG. 1): remarkable effect of controlling all of the gramineous weeds; also recorded: effectively controlled
